Laboratory results published in patent US20260373132A1, “PERK INHIBITORHC-5404 IN COMBINATION WITH ANTI-PD-1 ANTIBODY AND/OR AN ANTIANGIOGENETIC AGENT FOR USE IN THE TREATMENT OF CANCER” (HIBERCELL, INC., priority 2022, published 2026).

Tests used:
[1] = tested on: MFE280 endometrial cancer model; test: MFE280 endometrial xenograft tumor growth; type: in vivo, mouse; details: single agent: HC-5404 30 mg/kg PO BID or lenvatinib 10 mg/kg QD (FIG. 77)
Description: Xenograft RCC models were generated as follows: Female NOD.SCID mice (6-8 weeks of age) were injected with A498 RCC cells (5×10^6 cells/mouse), female Balb/c Nude mice (6-8 weeks old) were implanted with 786-O RCC cells (5×10^6 cells/mouse) or Caki-1 RCC cells (6×10^6 cells/mouse), female Athymic Nude-Foxn1nu mice (7-8 weeks of age) were implanted with MFE280 endometrial cells (10×10^6 cells/mouse). Cells were implanted into the flank of animals.
Once tumor tumors reached volume of typically 150-250 mm^3, animals were randomized by tumor volume into the treatment groups of 8 or 10 animals per group. In the single animal trial with RCC PDX models, only one animal per group was enrolled.
Body weight and tumor volume were measured twice weekly. Tumor volume was calculated using the formula [tumor volume (mm^3)=π/6×length×width^2] and plotted as means+SEM. The percentage of tumor growth inhibition was calculated at the end of the study using the formula: 100−[1−(ΔT/ΔC)], if ΔT>0, ΔT, mean tumor volume of the drug-treated group on the observation day of the study—mean tumor volume of the drug-treated group on initial day of dosing; ΔC, mean tumor volume of the control group on the observation day of the study—mean tumor volume of the control group on initial day of dosing. Regression was calculated using the formula=100×ΔT/Tinitial, if ΔT<0. […]

[2] = tested on: human cord blood-derived MDSCs / CD3 T cells; test: human T cell suppression assay with human cord blood-derived MDSCs; type: cell-based; details: 500 or 750 nM (FIG. 10A, 10C)
Description: Human MDSC Preparation: Fresh cord blood was obtained from NDRI (Protocol ID #RCHA4 01). Mononuclear cells were enriched from cord blood by Lymphoprep density gradient centrifugation, followed by CD34+ cell isolation using EasySep Human Cord Blood CD34 Positive selection Kit II, and the enriched CD34+ cells were cultured in a 48-well plate (BD Falcon, Bedford, MA) at 1×10^5 cells/well/ml of IMDM complete medium (IMDM supplemented with 10% FBS, 1× penicillin-streptomycin and 2 mM L-glutamax). 100 ng/ml human GM-CSF, 100 ng/ml human G-CSF and 50 ng/ml human SCF were added to the IMDM complete medium and cells were expanded for 13-14 days in a 37 °C, 5% CO2 humidified incubator and medium was refreshed on day 7. MDSC differentiation was induced by culturing the expanded CD34+ cells in a 24 well plate at 0.1-0.15×10^6 cells/well in 2 ml of IMDM complete medium supplemented with 100 ng/ml human GM-CSF, 50 ng/mL G-CSF and 30 ng/ml IL-6 for additional 6-7 days with medium changed on day 3. […]
Human T cell Suppression Assay. […] T cell proliferation was analyzed by flow cytometry. […] The labeled cells were analyzed on a BD Fortessa cytometer and data was analyzed by FlowJo. […] Data were analyzed using one-way ANOVA with multiple comparison corrected with Dunnett test. *P<0.05; **P<0.01; ***P<0.005, ****P<0.0001 (FIGS. 10A, 10B, and 10C).

[3] = tested on: 468 unique kinases; test: KINOMEScan biochemical panel assay; type: binding, human
Description: The selectivity of HC-5404 against the broader kinome was then evaluated using a KINOMEScan biochemical panel assay that measured binding against 468 unique kinases, including 403 wild-type human kinases and 59 mutant isoforms.

[4] = tested on: ATF4 targets in gastric PDX (GAO 114-R19P6); test: ATF4 target proteins in gastric PDX; type: in vivo, mouse; details: 7 days, 1 h post-dose (FIG. 81, 82)
Description: Samples were put in 500 μL of Novex lysis buffer consisting of 2× Novex Tris-Glycine SDS sample buffer (ThermoFisher LC2676), 1× Phosphatase Inhibitor Cocktail III (Sigma P0044), 1× PhosphataseArrest I (Gbioscience 113P-D), 1×2-mercaptoethanol (Gibco 21985023), 1× Benzonase (EMD Millipore Corp 70746-3), and 1× Protease inhibitor cocktail tablet (Roche/Sigma 11836170001). Samples were homogenized with the Polytron and heated for 10 min at 95 °C. They were then centrifuged at max speed for 10 min and the supernatant was transferred. Protein concentrations of samples were measured using the Pierce 660 nm Protein assay kit (Thermo Scientific 22660) according to the manufacturer's instructions.
Western Blot analysis was performed on the SimpleWestern high-throughput protein analysis platform (ProteinSimple 004-650) according to manufacturer's protocol using a 12-230 kDA Separation Module (ProteinSimple SM-W004) and Total Protein Detection Module (ProteinSimple DM-TP01). Antibodies used were: (Add info for other antibodies used) pPERK (Lilly; 1:50) and PERK (Cell Signaling Technology 5683; 1:200). All protein analytes were normalized to total protein loaded on capillary.
Gastric PDX model (GAO 114-R19P6) PD arm sampled after 7 days, 1 h post-dose.

For `Cc1cc(NC(=O)[C@H](O)c2cc(F)cc(F)c2)ccc1-c1cnc(N)c(C(=O)NC(C)C)c1` [HC-5404, (R)-2-amino-5-(4-(2-(3,5-difluorophenyl)-2-hydroxyacetamido)-2-methylphenyl)-N-isopropylnicotinamide], the TGI % [1] was ~ 37%, the “inhibition of T-cells by MDSCs” value [2] was “reduced inhibition of T-cells” and the “interactions in kinome panel” value ([3]; 100 nM, PERK not in panel) was “no interactions observed”. For the same compound, the “number of kinases inhibited >65%” value ([3]; 10,000 nM) was 9 kinases and the ATF4 target genes [4] was “induces ATF4 target genes, including ASNS, PSAT1 and other enzymes involved in amino acid metabolism”.
